{"source": "patent US5436243A", "about": "“Aminoanthraquinone derivatives to combat multidrug resistance” (priority 1993, dated 1995)", "key": {"[1]": {"test_system": "PKC", "assay": "Micellar PKC screening assay", "assay_type": "biochemical", "source_text": "The N-substituted diaminoanthraquinone, 1b, (1,4-bis-[[3'-(diethylamino)propyl]amino]anthraquinone), was identified as a PKC inhibitor in the micellar PKC screening assay and in platelets. […] Spectrophotometric analysis of 1b and lc indicated they were excellent chromophores with absorbance maxima at 648 and 600 nm in chloroform, respectively, and extinction coefficients of approximately 20,000. At these wavelengths, there was minimal absorbance by cellular components contained in the chloroform phase. These properties of 1b and 1c were utilized to determine the time course of accumulation of these compounds in MDR MCF7 Adr 10 cells.\nThe activities of 1a, 1b, 1c and 1d and mitoxantrone, an anthraquinone antineoplastic drug, were evaluated in vinblastine drug accumulation assays performed by the following method. […] Mitoxantrone was identified as a PKC inhibitor in miceliar PKC assays. Compound 1d (1,4-bis-[[2-(4-morpholino)ethyl]amino]anthraquinone) was only evaluated in cellular studies."}, "[2]": {"test_system": "MCF7 Adr 10 human breast cancer cells", "assay": "Vinblastine accumulation assay, MCF7 Adr 10", "assay_type": "cell-based", "description": "[^3 H] vinblastine ([^3 H] VLB) was added to a final concentration of 100 nM and the cells were incubated for 2.5 hours. At this time, the cells were washed 3 times in ice cold PBS and lysed in buffer containing 0.1% Triton X-100. Net accumulation of [^3 H] vinblastine was expressed as pmol/mg protein. In [^3 H]"}, "[3]": {"test_system": "A704 human renal cell line", "assay": "Vinblastine accumulation assay, A704", "assay_type": "cell-based", "conditions": "10 μM, 10 nM [3H] vinblastine", "description": "(§1) These cell lines are models of intrinsic resistance.\n(§2) [^3 H] vinblastine was added to a final concentration of 10 nM and the cells were incubated for 2.5 hours. At this time, the cells were washed 3 times in ice cold PBS and lysed in buffer containing 0.1% Triton X-100."}, "[4]": {"test_system": "SKRC7 human renal cell line", "assay": "Vinblastine accumulation assay, SKRC7", "assay_type": "cell-based", "conditions": "10 μM, 10 nM [3H] vinblastine", "description": "as §1, §2"}, "[5]": {"test_system": "UOK-39 human renal cell line", "assay": "Vinblastine accumulation assay, UOK-39", "assay_type": "cell-based", "conditions": "10 μM, 10 nM [3H] vinblastine", "description": "as §1, §2"}, "[6]": {"test_system": "P-glycoprotein", "assay": "Phosphorylation of P-glycoprotein in intact MCF7 Adr 10 cells", "assay_type": "cell-based, human", "conditions": "MCF7 Adr 10, representative time course experiment, FIG. 12", "source_text": "The effects of compound 1c on phosphorylation of the P-glycoprotein and the MARCKS protein (myristoylated alanine-rich C kinase substrate) was studied in intact cells labeled with [^32 P] orthophosphate. The MARCKS protein (also known as the 80 to 87 kD protein) is observed to be rapidly phosphorylated subsequent to PKC activation by phorbol esters, cell permeant diacylglycerols, growth factor and hormonal stimulation in a variety of cell types from several species. […] In these experiments, phosphorylation of MARCKS was used as a marker of cellular PKC activity. The effects of 1c on phosphorylation states of the P-glycoprotein and MARCKS protein were studied to test the possibility that this compound may be inhibiting PKC in cells; due to metabolism to an active PKC inhibitor or by achieving inhibitory concentrations in the microenvironment of the P-glycoprotein.\nMETHOD: A monoclonal antibody to the P-glycoprotein, C219, was used to immunoprecipitate the P-glycoprotein and a polyclonal rabbit antibody was used to immunoprecipitate the MARCKS protein from extracts of cells labeled with [^32 P]. MARCKS was immunoprecipitated after preclearing the aliquot with normal rabbit IgG. MCF7 Adr 10 cells were labeled with [^32 P] orthophosphate for two hours. […] P-glycoprotein and MARCKS were immunoprecipitated from aliquots of the same sample containing equivalent radioactivity."}, "[7]": {"test_system": "calmodulin kinase", "assay": "Calmodulin kinase inhibition", "assay_type": "biochemical", "source_text": "(§3) One possible explanation for stimulation of phosphorylation of P-glycoprotein and MARCKS is that 1c may activate PKC or other cellular kinases by signal transduction pathways that have not yet been identified to phosphorylate these proteins. An alternative explanation for stimulation of phosphorylation of P-glycoprotein and MARCKS is that 1c inhibits protein phosphatases."}, "[8]": {"test_system": "other phosphoproteins", "assay": "Overall phosphoprotein changes in cell extracts", "assay_type": "cell-based", "source_text": "as §3"}, "[9]": {"test_system": "MCF7 WT", "assay": "Tumor cell clonogenic assay, MCF7 WT", "assay_type": "cell-based, human"}, "[10]": {"test_system": "MCF7 Adr 10", "assay": "Tumor cell clonogenic assay, MCF7 ADR 10", "assay_type": "cell-based, human"}, "[11]": {"assay": "in vitro", "conditions": "human", "description": "(§4) Myelosuppression is often a dose limiting side effect of chemotherapeutic agents. […] The toxicities to human granulocyte-macrophage progenitors (CFU-GM) of 1b, 1c, and VLB was assessed by measuring inhibition of CFU-GM proliferation in cultures continuously exposed to each agent alone and compared to the toxicities to sensitive and resistant MCF7 in tumor cell clonogenic assays.\n(§5) METHOD: The CFLI-GM assay measures clonal proliferation of granulocyte/macrophage precursors in semisolid agar cultures. The progeny of the granulocyte/macrophage precursors remain in proximity of the progenitor cells and form colonies. Colonies which contain greater than 40 cells after 10-12 days of culture are counted using an inverted phase contrast microscope. The tumor cell clonogenic assays measure clonal proliferation of tumor cells. In this assay, 300-500 cells are plated in 10 cm^2 wells, allowed to adhere overnight, and are treated the following day. Tumor cell colonies were counted after 10-12 days of culture. The times of exposure in these experiments are similar; however, the concentrations of FCS are 20% in the CFU-GM assay and 10% in the tumor cell clonogenic assays. The IC50's are calculated as described above for the MTT proliferation assays. (See Example 4).\n(§6) To facilitate this comparison, a CFLI-GM toxicity index was calculated by dividing the CFU-GM IC50 by the respective tumor cell clonogenic IC50's in sensitive and resistant cells."}, "[12]": {"test_system": "granulocyte-macrophage progenitors (CFU-GM)", "assay": "cells", "description": "as §4, §5, §6"}, "[13]": {"test_system": "mice", "assay": "Preliminary animal toxicity studies", "assay_type": "in vivo", "conditions": "400 mg/kg"}}, "note": "“Also recorded” adds a separate entry of the source."}
{"smiles": "O=C1c2ccccc2C(=O)c2c(NCCCN3CCOCC3)ccc(NCCCN3CCOCC3)c21", "note": "[Compound 1c, 1,4-bis-[[3'(4-morpholino)propyl]amino]anthraquinone]", "values": [{"measurement": "PKC activity in micellar PKC screening assay", "setting": "[1]", "value": "marginal PKC inhibitory activity"}, {"measurement": "minimal effective concentration", "setting": "[2]; Homo sapiens, NCI/ADR-RES, 100 nM [3H] VLB, 2.5 hours, FIGS. 2 and 3, read-out: lowest concentration which causes a doubling of basal accumulation of vinblastine", "value": 0.5, "unit": "µM"}, {"measurement": "activity in vinblastine accumulation assay / drug accumulation", "setting": "[2]; MDR MCF7", "value": "greater activity than 1b; also recorded: greatest activity in drug accumulation assays; also recorded: increase vinblastine accumulation in MDR MCF7; also recorded: activity superior to verapamil at concentrations between 0.5 μM and 10 μM"}, {"measurement": "vinblastine accumulation relative to verapamil", "setting": "[3]", "value": "comparable or superior to verapamil activity"}, {"measurement": "vinblastine accumulation relative to verapamil", "setting": "[4]", "value": "comparable or superior to verapamil activity"}, {"measurement": "vinblastine accumulation relative to verapamil", "setting": "[5]", "value": "comparable or superior to verapamil activity"}, {"measurement": "increase of P-glycoprotein phosphorylation", "setting": "[6]", "value": 6.6, "unit": "fold"}, {"measurement": "calmodulin kinase inhibitory activity", "setting": "[7]", "value": "did not inhibit"}, {"measurement": "phosphorylation of other phosphoproteins", "setting": "[8]", "value": "did not significantly alter phosphorylation of other phosphoproteins"}, {"measurement": "IC50", "setting": "[9]; Homo sapiens, MCF7, tumor cell clonogenic assay, 10-12 days, read-out: Continuous Exposure IC50, MCF7 WT", "value": 800, "unit": "nM"}, {"measurement": "antiproliferative effect relative to human CFU-GM", "setting": "[9]; sensitive cancer cells, clonal proliferation assays", "value": "approximately 10 times"}, {"measurement": "IC50", "setting": "[10]; Homo sapiens, NCI/ADR-RES, tumor cell clonogenic assay, 10-12 days, read-out: Continuous Exposure IC50, MCF7 ADR 10", "value": 400, "unit": "nM"}, {"measurement": "antiproliferative effect relative to human CFU-GM", "setting": "[10]; MDR cancer cells, clonal proliferation assays", "value": "~20", "unit": "times"}, {"measurement": "relative sensitivity of MCF7 WT and MDR MCF7 to cytotoxicity", "setting": "[10]; clonogenic assays", "value": "MDR MCF7 are twice as sensitive to 1c cytotoxicity as MCF7 WT"}, {"measurement": "selectivity ratio", "setting": "[11]; CFU-GM Toxicity Index (CFU-GM IC50 / Tumor Cell Clonogenic IC50)", "value": 9.8}, {"measurement": "selectivity ratio", "setting": "[11]; cfu-gm vs mcf7, lower sensitivity of CFU-GM than drug sensitive (WT) and MDR cancer cell lines", "value": "10 to 20"}, {"measurement": "IC50", "setting": "[12]; Homo sapiens, CFU-GM, read-out: Continuous Exposure IC50, CFU-GM", "value": 7.8, "unit": "µM"}, {"measurement": "CFU-GM Toxicity Index (CFU-GM IC50 / Tumor Cell Clonogenic IC50)", "setting": "[12]; human", "value": 19.5}, {"measurement": "toxicity in mice", "setting": "[13]", "value": "not toxic at 400 mg/kg in mice"}]}
